Laboratory results reported in patent publication US11608338B2, “Imidazolonylquinolines and the use thereof as ATM kinase inhibitors” (priority 2015, dated 2023).

Experiments:
Format in all cases: biochemical
[1] = molecular target: PI3K p110α/p85α (human) (Homo sapiens (Human), UniProt P42336); assay: PI3K p110α/p85α (human), non-radioactive assay (HTRF); settings: ATM versus PI3Kalpha
Description: PI3K p110α/p85α (Human), Non-Radioactive Assay
(§1) PI3K p110α/p85α (human) was incubated in an assay buffer comprising 10 μM phosphatidylinositol 4,5-bisphosphate and MgATP (concentration as necessary). The reaction was initiated by addition of MgATP solution. After incubation at room temperature for 40 minutes, the reaction was stopped by addition of a solution consisting of EDTA and biotinylated phosphatidylinositol 3,4,5-trisphosphate. Finally, the detection buffer, consisting of a europium-labelled anti-GST monoclonal antibody, a GST-labelled GRP1 PH domain and streptavidin allophycocyanin, was added. The plate was read out via homogeneous time-resolved fluorescence (HTRF) and the corresponding signals were evaluated via the formula HTRF=10000×(Em665 nm/Em620 nm).

[2] = molecular target: PI3K p110δ/p85α (human) (Homo sapiens (Human), UniProt O00329); assay: PI3K p110δ/p85α (human), non-radioactive assay (HTRF); settings: ATM versus PI3Kdelta
Chain of PI3K p110δ/p85α (human) (O00329 whole entry): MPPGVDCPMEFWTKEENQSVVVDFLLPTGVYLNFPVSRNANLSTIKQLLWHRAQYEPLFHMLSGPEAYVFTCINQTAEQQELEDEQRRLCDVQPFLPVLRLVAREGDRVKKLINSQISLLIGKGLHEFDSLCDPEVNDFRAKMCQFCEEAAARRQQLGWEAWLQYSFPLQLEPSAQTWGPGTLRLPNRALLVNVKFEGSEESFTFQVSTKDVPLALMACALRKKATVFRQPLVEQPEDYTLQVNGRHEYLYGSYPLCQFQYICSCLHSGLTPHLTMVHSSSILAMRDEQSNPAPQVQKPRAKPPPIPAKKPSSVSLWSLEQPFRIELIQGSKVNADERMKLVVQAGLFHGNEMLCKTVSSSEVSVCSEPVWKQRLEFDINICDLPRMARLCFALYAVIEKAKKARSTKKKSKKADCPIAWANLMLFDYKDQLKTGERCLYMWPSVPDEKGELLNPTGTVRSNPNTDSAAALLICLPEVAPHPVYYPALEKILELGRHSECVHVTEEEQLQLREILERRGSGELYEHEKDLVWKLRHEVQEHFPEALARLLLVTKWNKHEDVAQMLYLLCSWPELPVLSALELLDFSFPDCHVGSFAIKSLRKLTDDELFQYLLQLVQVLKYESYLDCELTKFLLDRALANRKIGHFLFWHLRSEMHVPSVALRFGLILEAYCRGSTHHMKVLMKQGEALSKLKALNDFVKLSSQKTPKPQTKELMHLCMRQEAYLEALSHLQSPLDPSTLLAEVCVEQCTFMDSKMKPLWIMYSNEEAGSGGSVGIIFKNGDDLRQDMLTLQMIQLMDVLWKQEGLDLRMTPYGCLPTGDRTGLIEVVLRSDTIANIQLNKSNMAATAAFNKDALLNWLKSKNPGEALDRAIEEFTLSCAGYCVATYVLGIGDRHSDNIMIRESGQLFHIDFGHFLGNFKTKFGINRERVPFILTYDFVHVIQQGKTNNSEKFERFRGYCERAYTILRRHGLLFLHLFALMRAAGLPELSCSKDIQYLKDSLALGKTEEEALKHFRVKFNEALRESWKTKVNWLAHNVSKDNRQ
Chain of PI3K p110δ/p85α (human) (P27986 whole entry partner): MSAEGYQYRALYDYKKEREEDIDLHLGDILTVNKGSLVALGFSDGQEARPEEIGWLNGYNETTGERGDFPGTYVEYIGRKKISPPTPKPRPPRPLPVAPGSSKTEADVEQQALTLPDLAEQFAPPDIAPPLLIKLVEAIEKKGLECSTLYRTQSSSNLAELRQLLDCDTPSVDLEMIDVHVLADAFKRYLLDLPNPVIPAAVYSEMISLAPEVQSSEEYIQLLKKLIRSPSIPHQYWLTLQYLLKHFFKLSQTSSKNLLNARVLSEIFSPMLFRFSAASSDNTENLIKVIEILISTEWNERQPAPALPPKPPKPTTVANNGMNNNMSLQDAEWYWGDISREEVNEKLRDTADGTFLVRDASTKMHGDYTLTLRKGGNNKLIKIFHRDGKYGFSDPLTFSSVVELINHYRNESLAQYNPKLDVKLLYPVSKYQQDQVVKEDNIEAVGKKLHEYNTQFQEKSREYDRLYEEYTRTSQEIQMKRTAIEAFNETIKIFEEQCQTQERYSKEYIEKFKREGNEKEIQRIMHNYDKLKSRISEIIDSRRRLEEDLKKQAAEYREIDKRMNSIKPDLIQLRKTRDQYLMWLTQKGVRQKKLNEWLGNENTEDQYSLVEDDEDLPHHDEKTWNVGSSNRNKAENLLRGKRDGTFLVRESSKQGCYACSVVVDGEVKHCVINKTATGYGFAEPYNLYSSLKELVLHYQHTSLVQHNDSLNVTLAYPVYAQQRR
Description: PI3K p110δ/p85α (Human), Non-Radioactive Assay
as §1, with “p110δ/p85α” for “p110α/p85α”, “After an” for “After”, “incubation time of 30 min” for “incubation”, “temperature,” for “temperature for 40 minutes,”

[3] = molecular target: PI3K (p120γ) (human) (Homo sapiens (Human), UniProt P48736); assay: PI3K (p120γ) (human), non-radioactive assay (HTRF); settings: ATM versus PI3Kgamma
Chain of PI3K (p120γ) (human) (P48736 whole entry): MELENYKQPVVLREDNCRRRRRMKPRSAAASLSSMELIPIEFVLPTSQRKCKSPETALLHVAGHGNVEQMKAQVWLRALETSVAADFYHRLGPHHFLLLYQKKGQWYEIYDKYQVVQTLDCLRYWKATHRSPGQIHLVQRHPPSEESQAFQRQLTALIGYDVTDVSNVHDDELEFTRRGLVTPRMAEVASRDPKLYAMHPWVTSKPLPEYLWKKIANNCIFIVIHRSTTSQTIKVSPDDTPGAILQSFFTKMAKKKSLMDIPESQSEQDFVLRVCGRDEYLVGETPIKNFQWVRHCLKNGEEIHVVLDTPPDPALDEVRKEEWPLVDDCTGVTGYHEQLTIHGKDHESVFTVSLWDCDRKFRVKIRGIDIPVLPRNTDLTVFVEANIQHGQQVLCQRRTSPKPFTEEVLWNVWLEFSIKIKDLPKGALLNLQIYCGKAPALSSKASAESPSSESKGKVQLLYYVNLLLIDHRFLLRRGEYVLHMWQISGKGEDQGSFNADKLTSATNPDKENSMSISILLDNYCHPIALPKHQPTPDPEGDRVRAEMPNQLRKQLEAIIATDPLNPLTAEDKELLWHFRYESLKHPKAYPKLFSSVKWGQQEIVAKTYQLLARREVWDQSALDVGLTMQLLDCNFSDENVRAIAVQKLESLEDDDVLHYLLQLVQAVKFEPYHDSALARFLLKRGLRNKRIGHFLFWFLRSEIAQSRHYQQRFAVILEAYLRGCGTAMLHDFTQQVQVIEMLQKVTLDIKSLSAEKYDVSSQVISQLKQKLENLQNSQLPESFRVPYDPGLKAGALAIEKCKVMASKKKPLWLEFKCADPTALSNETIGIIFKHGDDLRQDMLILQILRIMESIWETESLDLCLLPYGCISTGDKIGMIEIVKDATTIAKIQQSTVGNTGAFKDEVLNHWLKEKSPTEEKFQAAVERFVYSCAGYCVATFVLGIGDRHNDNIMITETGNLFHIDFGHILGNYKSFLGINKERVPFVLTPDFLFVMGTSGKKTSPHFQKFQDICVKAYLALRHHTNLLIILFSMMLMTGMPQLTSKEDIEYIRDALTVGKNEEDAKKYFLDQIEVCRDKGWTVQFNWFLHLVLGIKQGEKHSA
Description: PI3K (p120γ) (Human), Non-Radioactive Assay
as §1, with “(p120γ)” for “p110α/p85α”, “After an” for “After”, “incubation time of 30 min” for “incubation”, “temperature,” for “temperature for 40 minutes,”, “nm). • MgATP=magnesium 5′-O-[hydroxy({[(hydroxyphosphinato)oxy]phosphinato}oxy)phosphoryl]adenosine • MgCl2=magnesium dichloride • EGTA=ethylene glycol bis(aminoethyl ether) N,N,N′,N′-tetraacetic acid • Tween 20=polysorbate 20 Medicament/Pharmaceutical Composition” for “nm).”

[4] = molecular target: mTOR (human) (Homo sapiens (Human), UniProt P42345); assay: mTOR (human) radiometric kinase assay; settings: ATM versus mTOR
Description: Furthermore, the effect, in particular inhibition, of other kinases and thus the selectivity of the compounds according to the invention can be determined with the aid of the following assay:
mTOR (human) was incubated with 50 mM HEPES pH 7.5, 1 mM EGTA, 0.01% Tween 20, 2 mg/ml of the substrate, 3 mM MnCl2 and [γ-^33P-ATP] (specific activity approximately 500 cpm/pmol, concentration as necessary). The reaction was initiated by addition of MgATP solution. After incubation at room temperature for 40 minutes, the reaction was stopped by addition of 3% phosphoric acid. 10 μl of the reaction solution were then transferred dropwise onto a P30 filtermat and washed three times for 5 min in 75 mM phosphoric acid and once in methanol, dried and evaluated by means of liquid scintillation counting.

[5] = molecular target: PI3K p110β/p85α (human) (Homo sapiens (Human), UniProt P42338); assay: PI3K p110β/p85α (human), non-radioactive assay (HTRF); settings: ATM versus PI3Kbeta
Chain of PI3K p110β/p85α (human) (P42338 whole entry): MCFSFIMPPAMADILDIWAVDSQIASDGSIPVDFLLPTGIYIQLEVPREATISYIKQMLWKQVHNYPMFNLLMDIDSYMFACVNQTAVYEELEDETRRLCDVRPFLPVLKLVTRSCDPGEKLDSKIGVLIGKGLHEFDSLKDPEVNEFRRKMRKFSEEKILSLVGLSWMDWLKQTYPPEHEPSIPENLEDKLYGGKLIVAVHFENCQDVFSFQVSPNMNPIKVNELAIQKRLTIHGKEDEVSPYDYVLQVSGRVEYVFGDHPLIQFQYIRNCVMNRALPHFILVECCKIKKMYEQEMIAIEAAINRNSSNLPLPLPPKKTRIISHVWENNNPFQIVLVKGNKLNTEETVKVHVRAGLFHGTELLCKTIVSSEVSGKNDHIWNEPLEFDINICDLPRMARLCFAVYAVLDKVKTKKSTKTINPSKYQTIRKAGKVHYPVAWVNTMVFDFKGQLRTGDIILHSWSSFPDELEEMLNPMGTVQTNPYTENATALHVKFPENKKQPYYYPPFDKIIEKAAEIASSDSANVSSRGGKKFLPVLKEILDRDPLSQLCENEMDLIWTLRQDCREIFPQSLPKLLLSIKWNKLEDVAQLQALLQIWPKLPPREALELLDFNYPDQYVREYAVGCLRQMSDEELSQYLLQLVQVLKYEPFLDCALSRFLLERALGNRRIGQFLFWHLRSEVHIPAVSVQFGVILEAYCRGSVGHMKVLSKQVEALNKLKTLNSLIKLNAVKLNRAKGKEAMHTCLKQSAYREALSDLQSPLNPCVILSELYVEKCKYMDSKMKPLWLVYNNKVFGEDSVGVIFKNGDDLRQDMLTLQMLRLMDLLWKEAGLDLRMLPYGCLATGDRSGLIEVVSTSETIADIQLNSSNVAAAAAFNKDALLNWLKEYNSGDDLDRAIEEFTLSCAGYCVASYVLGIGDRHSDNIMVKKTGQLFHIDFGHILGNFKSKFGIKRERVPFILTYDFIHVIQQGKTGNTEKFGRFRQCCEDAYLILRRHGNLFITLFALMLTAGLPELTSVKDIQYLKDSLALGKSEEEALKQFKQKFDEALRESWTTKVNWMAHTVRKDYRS
Chain of PI3K p110β/p85α (human) (P27986 whole entry partner): as the sequence (P27986 whole entry partner) above
Description: PI3K p110β/p85α (Human), Non-Radioactive Assay
as §1, with “p110β/p85α” for “p110α/p85α”, “After an” for “After”, “incubation time of 30 min” for “incubation”, “temperature,” for “temperature for 40 minutes,”

Chain of PI3K p110α/p85α (human) (P42336 whole entry): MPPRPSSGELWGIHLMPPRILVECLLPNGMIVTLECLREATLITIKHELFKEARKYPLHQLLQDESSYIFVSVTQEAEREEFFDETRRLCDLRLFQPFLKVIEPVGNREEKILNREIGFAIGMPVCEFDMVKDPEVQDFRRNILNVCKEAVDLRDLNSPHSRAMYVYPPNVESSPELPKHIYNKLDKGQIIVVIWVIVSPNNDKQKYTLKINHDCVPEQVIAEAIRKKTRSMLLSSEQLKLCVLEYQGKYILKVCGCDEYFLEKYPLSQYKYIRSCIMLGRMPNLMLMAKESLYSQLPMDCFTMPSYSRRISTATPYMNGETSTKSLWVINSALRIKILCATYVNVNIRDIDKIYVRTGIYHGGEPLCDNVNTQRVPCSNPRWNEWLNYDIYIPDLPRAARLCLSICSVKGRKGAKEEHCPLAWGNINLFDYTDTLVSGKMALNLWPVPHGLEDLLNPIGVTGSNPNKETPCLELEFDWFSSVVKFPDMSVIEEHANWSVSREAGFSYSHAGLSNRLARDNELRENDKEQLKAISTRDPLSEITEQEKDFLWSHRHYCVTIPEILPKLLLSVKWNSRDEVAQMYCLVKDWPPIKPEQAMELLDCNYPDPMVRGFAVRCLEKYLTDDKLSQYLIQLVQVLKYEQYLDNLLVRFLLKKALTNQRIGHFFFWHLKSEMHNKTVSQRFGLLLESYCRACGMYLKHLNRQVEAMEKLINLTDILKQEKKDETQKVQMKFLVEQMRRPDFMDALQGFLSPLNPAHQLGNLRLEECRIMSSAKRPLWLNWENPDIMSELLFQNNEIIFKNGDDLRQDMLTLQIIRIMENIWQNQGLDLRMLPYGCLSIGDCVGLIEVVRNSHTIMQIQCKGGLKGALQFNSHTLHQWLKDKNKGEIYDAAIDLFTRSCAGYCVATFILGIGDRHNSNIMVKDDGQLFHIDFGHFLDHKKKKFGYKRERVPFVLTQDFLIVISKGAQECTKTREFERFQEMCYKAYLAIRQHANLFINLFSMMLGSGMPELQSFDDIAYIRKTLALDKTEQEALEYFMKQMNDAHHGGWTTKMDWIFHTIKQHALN
Chain of PI3K p110α/p85α (human) (P27986 whole entry partner): as the sequence (P27986 whole entry partner) above

Compound | ratio of IC50 (ATM) and IC50 (PI3Kalpha), selectivity with respect to PI3Kalpha [1] | ratio of IC50 (ATM) and IC50 (PI3Kdelta), selectivity with respect to PI3Kdelta [2] | ratio of IC50 (ATM) and IC50 (PI3Kgamma), selectivity with respect to PI3Kgamma [3] | ratio IC50 (ATM):IC50 (mTOR), selectivity with respect to mTOR [4] | ratio IC50 (ATM):IC50 (PI3Kbeta), selectivity with respect to PI3Kbeta [5]
COCCOc1cnc(-n2c(=O)n(C)c3cnc4cc(OC)c(-c5cnn(C)c5)cc4c32)c(F)c1 [Example 66, 1-[3-Fluoro-5-(2-methoxy-ethoxy)-2-pyridyl]-7-methoxy-3-methyl-8-(1-methylpyrazol-4-yl)imidazo-[4,5-c]quinolin-2-one] | at least 2000 times | at least 2000 times | at least 2000 times |  | 
COc1cc2ncc3c(c2cc1-c1cnn(C)c1)n(-c1ncc(OCCO)cc1F)c(=O)n3C [Example 67, 1-[3-Fluoro-5-(2-hydroxy-ethoxy)-2-pyridyl]-7-methoxy-3-methyl-8-(1-methylpyrazol-4-yl)imidazo-[4,5-c]quinolin-2-one] | at least 2000 times | at least 2000 times | at least 2000 times |  | 
COc1cc2ncc3c(c2cc1-c1cnn(C)c1)n(-c1ncc(OC(F)F)cc1F)c(=O)n3C [Example 114, 1-(5-Difluoromethoxy-3-fluoropyridin-2-yl)-7-methoxy-3-methyl-8-(1-methyl-1H-pyrazol-4-yl)-1,3-dihydroimidazo[4,5-c]-quinolin-2-one] | at least 2000 times | at least 2000 times | at least 2000 times | at least 2000 times | 
COc1cc2ncc3c(c2cc1-c1c[nH]nc1C)n(-c1ncc(F)cc1F)c(=O)n3C [Example 117, 1-(3,5-Difluoropyridin-2-yl)-7-methoxy-3-methyl-8-(3-methyl-1H-pyrazol-4-yl)-1,3-dihydroimidazo[4,5-c]-quinolin-2-one] | at least 2000 times | at least 2000 times | at least 2000 times |  | 
COc1cc2ncc3c(c2cc1-c1cnn(C)c1)n(-c1cc2[nH]ccc2cn1)c(=O)n3C [Example 120, 7-Methoxy-3-methyl-8-(1-methyl-1H-pyrazol-4-yl)-1-(1H-pyrrolo[3,2-c]pyridin-6-yl)-1,3-dihydroimidazo-[4,5-c]quinolin-2-one] | at least 2000 times | at least 2000 times | at least 2000 times | at least 2000 times | 
COc1cc2ncc3c(c2cc1-c1cc[nH]n1)n(-c1cn(C)nc1C)c(=O)n3C [Example 121, 1-(1,3-Dimethyl-1H-pyrazol-4-yl)-7-methoxy-3-methyl-8-(1H-pyrazol-3-yl)-1,3-dihydroimidazo[4,5-c]-quinolin-2-one] |  |  |  | at least 2000 times | 
COc1cnc(-n2c(=O)n(C)c3cnc4cc(OC)c(-c5c[nH]nc5C)cc4c32)c(F)c1 [Example 122, 1-(3-Fluoro-5-methoxy-pyridin-2-yl)-7-methoxy-3-methyl-8-(3-methyl-1H-pyrazol-4-yl)-1,3-dihydro-imidazo[4,5-c]quinolin-2-one] | at least 2000 times | at least 2000 times | at least 2000 times | at least 2000 times | 
COc1cc2ncc3c(c2cc1-c1cnn(C)c1)n(-c1ncc(N2CCNCC2)cc1F)c(=O)n3C [Example 123, 1-(3-Fluoro-5-piperazin-1-yl-pyridin-2-yl)-7-methoxy-3-methyl-8-(1-methyl-1H-pyrazol-4-yl)-1,3-dihydro-imidazo[4,5-c]quinolin-2-one] | at least 2000 times | at least 2000 times | at least 2000 times |  | 
CCc1cncc(F)c1-n1c(=O)n(C)c2cnc3cc(OC)c(-c4cn(C)nn4)cc3c21 [Example 126, 1-(3-Ethyl-5-fluoropyridin-4-yl)-7-methoxy-3-methyl-8-(1-methyl-1H-1,2,3-triazol-4-yl)-1,3-dihydroimidazo-[4,5-c] quinolin-2-one] | at least 2000 times | at least 2000 times | at least 2000 times | at least 2000 times | 
COc1ccc(-c2cc3c(cc2OC)ncc2c3n(-c3c(F)cncc3OC)c(=O)n2C)cn1 [Example 137, 1-(3-Fluoro-5-methoxy-pyridin-4-yl)-7-methoxy-8-(6-methoxypyridin-3-yl)-3-methyl-1,3-dihydroimidazo-[4,5-c]quinolin-2-one] |  |  |  |  | at least 2000 times
CNC(=O)c1cnc(-n2c(=O)n(C)c3cnc4cc(OC)c(-c5cnn(C)c5)cc4c32)c(F)c1 [Example 138, 5-Fluoro-6-[7-methoxy-3-methyl-8-(1-methyl-1H-pyrazol-4-yl)-2-oxo-2,3-dihydroimidazo[4,5-c]-quinolin-1-yl]-N-methyl-nicotinamid] |  |  |  | at least 2000 times | 
COc1cc2ncc3c(c2cc1-c1cnn(C)c1)n(-c1cn(C)nc1F)c(=O)n3C [Example 141, 1-(3-Fluoro-1-methyl-1H-pyrazo1-4-yl)-7-methoxy-3-methyl-8-(1-methyl-1H-pyrazol-4-yl)-1,3-dihydro-imidazo[4,5-c]quinolin-2-one] |  |  |  | at least 2000 times | 
COc1cc2ncc3c(c2cc1-c1cn(C)nc1C)n(-c1c(F)cncc1OC(F)F)c(=O)n3C [Example 147, 1-(3-Difluoromethoxy-5-fluoropyridin-4-yl)-8-(1,3-dimethyl-1H-pyrazol-4-yl)-7-methoxy-3-methyl-1,3-dihydroimidazo[4,5-c]-quinolin-2-one] |  |  |  | at least 2000 times | 
CCc1cnccc1-n1c(=O)n(C)c2cnc3cc(OC)c(-c4cnn(CC)c4)cc3c21 [Example 157, 8-(1-Ethyl-1H-pyrazol-4-yl)-1-(3-ethylpyridin-4-yl)-7-methoxy-3-methyl-1,3-dihydroimidazo[4,5-c] quinolin-2-one] |  |  |  | at least 2000 times | 
COc1cc2ncc3c(c2cc1-c1cnn(C)c1)n(-c1ncc(OC2CNC2)cc1F)c(=O)n3C [Example 205, 1-[5-(Azetidin-3-yloxy)-3-fluoropyridin-2-yl]-7-methoxy-3-methyl-8-(1-methyl-1H-pyrazol-4-yl)-1,3-dihydroimidazo[4,5-c]-quinolin-2-one] | at least 2000 times | at least 2000 times | at least 2000 times |  | 
